Experimental data published in patent publication US10131652B2, “Pyrimidinyloxy benzene derivatives as herbicides” (E. I. DU PONT DE NEMOURS AND COMPANY, priority 2014, dated 2018).

Columns and labels:
Format in all cases: in vivo
[1] = system: winter wheat (Triticum aestivum); test: Test D pre-/postemergence plant response; conditions: Postemergence
How it was run: (§1)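 Plants are held in a greenhouse 13 to 15 days after spraying, then injury is rated by eye relative to controls on a 0 to 100 scale. Treatments are preemergence on freshly sown loam/sand pots or postemergence at 1- to 4-leaf stage in peat-based medium; surfactant-containing solvent formulation.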

[2] = system: yellow nutsedge (Cyperus esculentus); test: Test D pre-/postemergence plant response; conditions: Postemergence
How it was run: as §1

[3] = system: oilseed rape (Brassica napus); test: Test D pre-/postemergence plant response; conditions: Postemergence
How it was run: as §1

[4] = system: johnsongrass (Sorghum halepense); test: Test D pre-/postemergence plant response; conditions: Postemergence
How it was run: as §1

[5] = system: galium (catchweed bedstraw, Galium aparine); test: Test D pre-/postemergence plant response; conditions: Postemergence
How it was run: as §1

[6] = system: ragweed (common ragweed, Ambrosia elatior); test: Test D pre-/postemergence plant response; conditions: Postemergence
How it was run: as §1

[7] = system: pigweed (Amaranthus retroflexus); test: Test B pre-/postemergence plant response
How it was run: (§2)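 Greenhouse pots, loam/sand soil; compound formulated with surfactant in non-phytotoxic solvent. Preemergence soil spray and postemergence spray at 1–2 leaf stage run simultaneously. Visual injury, 0–100, about 10 days post-treatment.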

corn (Zea mays) = test: Test B pre-/postemergence plant response
How it was run: as §2

[8] = system: wheat (Triticum aestivum); test: Test B pre-/postemergence plant response
How it was run: as §2

[9] = system: giant foxtail (Setaria faberii); test: Test B pre-/postemergence plant response
How it was run: as §2

[10] = system: barnyardgrass (Echinochloa crus-galli); test: Test B pre-/postemergence plant response
How it was run: as §2

rice (Oryza sativa) = test: Test C flooded paddy test plant response; conditions: Flood, 250 g ai/ha; scale of 0 to 100 where 0 is no effect and 100 is complete control; 13 to 15 days
How it was run: (§3)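 Readout is a visual 0–100 score (100 = complete control) versus controls at 13–15 days. Plants at 2-leaf stage, flooded to 3 cm, treated through paddy water.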

[11] = system: small-flower umbrella sedge (Cyperus difformis); test: Test C flooded paddy test plant response; conditions: Flood, 250 g ai/ha; scale of 0 to 100 where 0 is no effect and 100 is complete control; 13 to 15 days
How it was run: as §3

[12] = system: ducksalad (Heteranthera limosa); test: Test C flooded paddy test plant response; conditions: Flood, 250 g ai/ha; scale of 0 to 100 where 0 is no effect and 100 is complete control; 13 to 15 days
How it was run: as §3

[13] = system: barnyardgrass (Echinochloa crus-galli); test: Test C flooded paddy test plant response; conditions: Flood, 250 g ai/ha; scale of 0 to 100 where 0 is no effect and 100 is complete control; 13 to 15 days
How it was run: as §3

[14] = 31 g ai/ha, Preemergence, 0 to 100 scale where 0 is no effect and 100 is complete control
[15] = 125 g ai/ha, postemergence, 0 to 100 scale, 0 no effect, 100 complete control
[16] = Postemergence, 31 g ai/ha, 0 to 100 scale (0 no effect, 100 complete control)
[17] = Preemergence, 125 g ai/ha, 0 to 100 scale (0 no effect, 100 complete control)

Structure (SMILES): CC(F)(F)c1cc(-c2ccccc2Oc2ncc(Cl)cn2)no1 [Compound 220]
- Plant response rating (scale 0 to 100), Wheat ([1]; 2 g ai/ha): 0
- Plant response rating (scale 0 to 100), Wheat ([1]; 4 g ai/ha): 0
- Plant response rating (scale 0 to 100), Wheat ([1]; 8 g ai/ha): 0
- Plant response rating (scale 0 to 100), Wheat ([1]; 16 g ai/ha): 0
- Plant response rating (scale 0 to 100), Nutsedge, Yellow ([2]; 2 g ai/ha): 0
- Plant response rating (scale 0 to 100), Nutsedge, Yellow ([2]; 4 g ai/ha): 0
- Plant response rating (scale 0 to 100), Nutsedge, Yellow ([2]; 8 g ai/ha): 0
- Plant response rating (scale 0 to 100), Nutsedge, Yellow ([2]; 16 g ai/ha): 5
- Plant response rating (scale 0 to 100), Oilseed Rape ([3]; 2 g ai/ha): 0
- Plant response rating (scale 0 to 100), Oilseed Rape ([3]; 4 g ai/ha): 5
- Plant response rating (scale 0 to 100), Oilseed Rape ([3]; 8 g ai/ha): 5
- Plant response rating (scale 0 to 100), Oilseed Rape ([3]; 16 g ai/ha): 10
- Plant response rating (scale 0 to 100), Johnsongrass ([4]; 2 g ai/ha): 0
- Plant response rating (scale 0 to 100), Johnsongrass ([4]; 4 g ai/ha): 0
- Plant response rating (scale 0 to 100), Johnsongrass ([4]; 8 g ai/ha): 0
- Plant response rating (scale 0 to 100), Johnsongrass ([4]; 16 g ai/ha): 5
- Plant response rating (scale 0 to 100), Galium ([5]; 2 g ai/ha): 50
- Plant response rating (scale 0 to 100), Galium ([5]; 4 g ai/ha): 50
- Plant response rating (scale 0 to 100), Galium ([5]; 8 g ai/ha): 55
- Plant response rating (scale 0 to 100), Galium ([5]; 16 g ai/ha): 60
- Plant response rating (scale 0 to 100), Ragweed ([6]; 2 g ai/ha): 5
- Plant response rating (scale 0 to 100), Ragweed ([6]; 4 g ai/ha): 15
- Plant response rating (scale 0 to 100), Ragweed ([6]; 8 g ai/ha): 15
- Plant response rating (scale 0 to 100), Ragweed ([6]; 16 g ai/ha): 25
- Plant response rating, Pigweed [7, 14]: 100
- Plant response rating, Pigweed [7, 15]: 100
- Plant response rating, Pigweed [7, 16]: 100
- Pigweed plant response rating [7, 17]: 100
- Plant response rating, Corn (corn (Zea mays); [15]): 20
- Plant response rating, Corn (corn (Zea mays); [16]): 10
- Plant response rating, Wheat [8, 15]: 50
- Plant response rating, Wheat [8, 16]: 10
- Plant response rating, Foxtail, Giant [9, 14]: 70
- Plant response rating, Foxtail, Giant [9, 15]: 80
- Plant response rating, Foxtail, Giant [9, 16]: 30
- Foxtail, Giant plant response rating [9, 17]: 100
- Plant response rating, Barnyardgrass [10, 14]: 10
- Plant response rating, Barnyardgrass [10, 15]: 40
- Plant response rating, Barnyardgrass [10, 16]: 10
- Barnyardgrass plant response rating [10, 17]: 100
- Rice plant response rating (rice (Oryza sativa)): 0
- Sedge, Umbrella plant response rating [11]: 75
- Ducksalad plant response rating [12]: 80
- Barnyardgrass plant response rating [13]: 20
